The values below come from US11117861B2, “Phenylpyrrolidinone formyl peptide 2 receptor agonists” (BRISTOL-MYERS SQUIBB COMPANY, priority 2018, dated 2021).

pEC50: −log10 of the molar value.

One experiment addresses human FPR2 (Homo sapiens (Human), UniProt P25090). Description: FPR2 cyclic adenosine monophosphate (cAMP) assay in CHO cells overexpressing human FPR2. Type of experiment: cell-based. Particulars: forskolin 5 μM, inhibition of cAMP production, read-out: hFPR2 cAMP2 EC50. The source says:
N-formyl peptide receptors (FPRs) are a family of chemo attractant receptors that facilitate leukocyte response during inflammation. FPRs belong to the seven-transmembrane G protein-coupled receptor superfamily and are linked to inhibitory G-proteins (Gi). Three family members (FPR1, FPR2 and FPR3) have been identified in humans and are predominantly found in myeloid cells with varied distribution and have also been reported in multiple organs and tissues. After agonist binding, the FPRs activate a multitude of physiological pathways, such as intra cellular signaling transduction, Ca^2+ mobilization and transcription. The family interacts with a diverse set of ligands that includes proteins, polypeptides and fatty acid metabolites which activate both pro-inflammatory and pro-resolution downstream responses. […]
FPR2 and FPR1 Cyclic Adenosine Monophosphate (cAMP) Assays. […] The level of intracellular cAMP was determined using the HTRF HiRange cAMP assay reagent kit (Cisbio) according to manufacturer's instruction. […] After a 1-h room temperature incubation, time-resolved fluorescence intensity was measured using the Envision (Perkin-Elmer) at 400 nm excitation and dual emission at 590 nm and 665 nm. […] The potency and activity of a compound to inhibit cAMP production was then determined by fitting to a 4-parametric logistic equation from a plot of cAMP level versus compound concentrations. […]
On the technique in general: Cyclic AMP is a second messenger, typically raised through Gs and lowered through Gi signalling.

For the next experiment, the target named is human FPR1 (Homo sapiens (Human), UniProt P21462). Description: FPR1 cyclic adenosine monophosphate (cAMP) assay in CHO cells overexpressing human FPR1. Type of experiment: cell-based. The conditions noted are these: forskolin 10 μM, inhibition of cAMP production, read-out: hFPR1 cAMP EC50.
Chain of human FPR1 (P21462 whole entry): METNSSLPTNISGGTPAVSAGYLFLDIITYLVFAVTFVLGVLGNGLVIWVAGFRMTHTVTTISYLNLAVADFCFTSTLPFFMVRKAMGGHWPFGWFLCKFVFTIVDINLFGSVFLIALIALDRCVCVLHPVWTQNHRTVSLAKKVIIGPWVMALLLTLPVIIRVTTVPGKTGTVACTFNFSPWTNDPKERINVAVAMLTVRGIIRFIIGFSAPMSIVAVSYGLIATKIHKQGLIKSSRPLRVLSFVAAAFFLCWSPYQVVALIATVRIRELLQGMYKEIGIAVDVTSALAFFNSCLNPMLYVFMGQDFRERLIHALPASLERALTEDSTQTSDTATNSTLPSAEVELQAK

Chain of human FPR2 (P25090 whole entry): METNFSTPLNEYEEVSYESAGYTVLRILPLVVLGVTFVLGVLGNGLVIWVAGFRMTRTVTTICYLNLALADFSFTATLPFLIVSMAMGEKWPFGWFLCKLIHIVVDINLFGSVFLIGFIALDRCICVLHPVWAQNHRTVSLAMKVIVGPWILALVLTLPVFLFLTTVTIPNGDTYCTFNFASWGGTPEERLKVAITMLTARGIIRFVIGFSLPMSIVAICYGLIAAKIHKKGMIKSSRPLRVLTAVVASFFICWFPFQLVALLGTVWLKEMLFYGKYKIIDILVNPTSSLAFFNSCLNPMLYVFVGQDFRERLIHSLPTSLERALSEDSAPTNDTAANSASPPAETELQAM
Protocol for human FPR1: FPR2 and FPR1 Cyclic Adenosine Monophosphate (cAMP) Assays were used to measure the activity of the compounds in this patent.
A mixture of forskolin (5 μM final for FPR2 or 10 μM final for FPR1) and IBMX (200 μM final) were added to 384-well Proxiplates (Perkin-Elmer) pre-dotted with test compounds in DMSO (1% final) at final concentrations in the range of 0.020 nM to 100 μM. Chinese Hamster Ovary cells (CHO) overexpressing human FPR1 or human FPR2 receptors were cultured in F-12 (Ham's) medium supplemented with 10% qualified FBS, 250 μg/ml zeocin and 300 μg/ml hygromycin (Life Technologies). Reactions were initiated by adding 2,000 human FPR2 cells per well or 4,000 human FPR1 cells per well in Dulbecco's PBS (with calcium and magnesium) (Life Technologies) supplemented with 0.1% BSA (Perkin-Elmer). The reaction mixtures were incubated for 30 min at room temperature. The level of intracellular cAMP was determined using the HTRF HiRange cAMP assay reagent kit (Cisbio) according to manufacturer's instruction. Solutions of cryptate conjugated anti-cAMP and d2 flurorophore-labelled cAMP were made in a supplied lysis buffer separately. […] The potency and activity of a compound to inhibit cAMP production was then determined by fitting to a 4-parametric logistic equation from a plot of cAMP level versus compound concentrations.

The pEC50 is the negative decadic logarithm of the EC50, by convention in mol/L. Turning to `COc1c(-c2ccccc2CO)ccc(N2CC[C@@H](NC(=O)Nc3ccc(Cl)cc3F)C2=O)c1F` [Example 35], the pEC50 at human FPR2 is 8.07; on human FPR1, 7.28.
